The source made the active and inactive calls.
What was measured:
[1] = ADAM10 protease inhibitors, dose response, selectivity assay for ADAM17 exosite inhibitor project, biochemical, FRET peptide substrate, recombinant human ADAM10 (AID 743259);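 further: ADAM10 enzyme cleaving a FRET peptide substrate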
[2] = inhibitors of intracellular T. cruzi replication, confirmation, NIH3T3 host cells, beta-gal luminescence (AID 2044); type: functional, cell-based;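 further: intracellular parasites grown in NIH/3T3 mouse fibroblasts as host cells; luminescent beta-galactosidase reporter signal from transgenic T. cruzi replicating inside host cells; inhibitors lower the luminescence signal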
[3] = cytotoxicity toward NIH3T3 fibroblasts, dose response, counter-screen, cell-based, ATP luminescence, mouse fibroblasts (AID 2010); type: functional;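 further: cells exposed to compound for about 90 hours before reading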
[4] = target: Disintegrin and metalloproteinase domain-containing protein 17 (Homo sapiens, UniProt P78536); test: exosite inhibitors of ADAM17, dose response, biochemical (AID 743260)
[5] = microbe, parasite or virus in culture; type: functional; conditions: Mycobacterium tuberculosis
[6] = A High Throughput Confirmatory Assay used to Identify Novel Compounds that Inhibit Mycobacterium Tuberculosis in the absence of Glycerol.; type: functional
[7] = target: T1, Short transient receptor potential channel 4 (Mus musculus, UniProt Q9QUQ5); test: mouse TRPC4 channel inhibitors, dose response, cell-based, HEK293 TRPC4/mu-opioid, Fluo-4 calcium (AID 434942); type: functional;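 further: potency of inhibitors blocking the TRPC4 calcium response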
T1 sequence (Q9QUQ5 whole entry): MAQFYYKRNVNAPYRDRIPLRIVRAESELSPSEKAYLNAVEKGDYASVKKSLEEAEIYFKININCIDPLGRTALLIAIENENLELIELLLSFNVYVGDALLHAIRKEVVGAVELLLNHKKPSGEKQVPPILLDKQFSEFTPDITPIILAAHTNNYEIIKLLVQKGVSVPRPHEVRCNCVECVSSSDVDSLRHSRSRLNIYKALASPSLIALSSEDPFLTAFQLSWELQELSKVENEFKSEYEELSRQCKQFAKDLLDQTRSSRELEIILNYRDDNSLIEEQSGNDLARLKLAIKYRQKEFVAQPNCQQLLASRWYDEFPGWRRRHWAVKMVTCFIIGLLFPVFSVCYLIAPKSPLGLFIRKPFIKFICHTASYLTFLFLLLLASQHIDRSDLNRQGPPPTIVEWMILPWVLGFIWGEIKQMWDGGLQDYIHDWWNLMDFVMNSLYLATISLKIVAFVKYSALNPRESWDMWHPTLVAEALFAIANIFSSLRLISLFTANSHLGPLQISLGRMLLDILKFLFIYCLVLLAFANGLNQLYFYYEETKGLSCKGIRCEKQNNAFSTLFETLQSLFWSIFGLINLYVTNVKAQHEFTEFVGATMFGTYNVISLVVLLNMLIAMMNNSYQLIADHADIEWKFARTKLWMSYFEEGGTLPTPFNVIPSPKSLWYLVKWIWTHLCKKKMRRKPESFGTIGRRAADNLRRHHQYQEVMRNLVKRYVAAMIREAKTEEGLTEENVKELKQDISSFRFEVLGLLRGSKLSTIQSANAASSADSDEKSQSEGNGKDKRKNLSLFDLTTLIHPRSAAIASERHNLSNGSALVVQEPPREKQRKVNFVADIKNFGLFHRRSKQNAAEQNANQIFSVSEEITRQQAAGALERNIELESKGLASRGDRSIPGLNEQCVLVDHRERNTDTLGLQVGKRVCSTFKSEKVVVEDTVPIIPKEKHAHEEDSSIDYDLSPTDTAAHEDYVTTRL

Protein RecA = target: T2, Protein RecA (Mycobacterium tuberculosis, UniProt P9WHJ3); test: Fluorescence Cell-Free Homogeneous Dose Retest to Identify Inhibitors of RecA-Intein Splicing Activity. [Related pubchem assays (depositor defined):AID2097, AID2223, AID489010, AID492950]; type: functional
T2 sequence (P9WHJ3 whole entry): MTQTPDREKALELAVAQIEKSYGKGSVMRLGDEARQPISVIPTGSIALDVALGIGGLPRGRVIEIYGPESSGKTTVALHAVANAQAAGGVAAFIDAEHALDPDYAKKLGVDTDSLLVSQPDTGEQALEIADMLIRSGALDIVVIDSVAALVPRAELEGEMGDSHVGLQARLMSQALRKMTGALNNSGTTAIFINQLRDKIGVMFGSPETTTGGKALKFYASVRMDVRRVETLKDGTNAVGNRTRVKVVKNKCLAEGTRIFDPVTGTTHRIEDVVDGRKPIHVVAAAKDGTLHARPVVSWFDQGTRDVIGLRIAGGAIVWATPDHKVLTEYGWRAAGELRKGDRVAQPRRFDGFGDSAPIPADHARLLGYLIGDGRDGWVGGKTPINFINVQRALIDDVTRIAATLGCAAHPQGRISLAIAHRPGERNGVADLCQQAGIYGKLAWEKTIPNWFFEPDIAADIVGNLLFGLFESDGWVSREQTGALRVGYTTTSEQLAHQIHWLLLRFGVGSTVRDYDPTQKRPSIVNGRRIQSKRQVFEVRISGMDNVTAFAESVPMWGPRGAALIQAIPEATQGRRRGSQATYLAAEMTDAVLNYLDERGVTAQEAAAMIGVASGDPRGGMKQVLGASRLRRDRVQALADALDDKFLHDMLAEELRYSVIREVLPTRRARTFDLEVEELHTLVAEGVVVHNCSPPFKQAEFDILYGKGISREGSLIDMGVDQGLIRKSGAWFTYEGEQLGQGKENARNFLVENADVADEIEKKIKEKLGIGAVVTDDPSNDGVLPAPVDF

[8] = target: T3, Replicative DNA helicase DnaB (Mycobacterium tuberculosis, UniProt P9WMR3); test: DnaB intein splicing inhibitors, dose response, biochemical, cell-free fluorescence (AID 449749); type: functional
T3 sequence (P9WMR3 whole entry): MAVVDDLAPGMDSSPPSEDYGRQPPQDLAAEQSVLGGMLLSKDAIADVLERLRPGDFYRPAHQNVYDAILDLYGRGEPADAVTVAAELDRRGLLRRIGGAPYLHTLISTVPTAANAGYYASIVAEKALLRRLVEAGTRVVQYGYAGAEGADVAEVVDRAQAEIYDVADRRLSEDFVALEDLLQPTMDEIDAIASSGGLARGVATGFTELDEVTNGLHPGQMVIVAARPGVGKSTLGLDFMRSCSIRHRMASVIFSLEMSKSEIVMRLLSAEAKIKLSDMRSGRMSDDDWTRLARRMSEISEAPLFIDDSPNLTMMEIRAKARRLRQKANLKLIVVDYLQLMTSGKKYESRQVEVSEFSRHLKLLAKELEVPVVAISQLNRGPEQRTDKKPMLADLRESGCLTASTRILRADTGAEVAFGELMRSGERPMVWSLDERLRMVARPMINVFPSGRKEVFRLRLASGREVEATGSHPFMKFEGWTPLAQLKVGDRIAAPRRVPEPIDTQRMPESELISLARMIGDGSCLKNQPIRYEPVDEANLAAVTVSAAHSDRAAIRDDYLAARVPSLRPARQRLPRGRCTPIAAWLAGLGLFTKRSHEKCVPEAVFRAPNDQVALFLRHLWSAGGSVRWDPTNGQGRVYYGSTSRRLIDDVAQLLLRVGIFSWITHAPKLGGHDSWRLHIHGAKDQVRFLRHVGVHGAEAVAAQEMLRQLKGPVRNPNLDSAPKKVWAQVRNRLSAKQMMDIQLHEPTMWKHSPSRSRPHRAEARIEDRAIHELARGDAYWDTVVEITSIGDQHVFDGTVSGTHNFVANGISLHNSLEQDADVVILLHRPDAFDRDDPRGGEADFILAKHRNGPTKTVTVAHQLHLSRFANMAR

[9] = target: T4, Heat shock factor protein 1 (Mus musculus, UniProt P38532); test: HSF1 potentiators in luciferase reporter cells, confirmation, cell-based, NIH3T3, luminescence, dose retest (AID 435004); type: functional;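 further: stress induced by proteasome inhibitor MG132 added 30 min after compound; luciferase reporter driven by HSF1 response element in NIH3T3 cells; actives raise luminescence as potentiators of the MG132 stress response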
T4 sequence (P38532 whole entry): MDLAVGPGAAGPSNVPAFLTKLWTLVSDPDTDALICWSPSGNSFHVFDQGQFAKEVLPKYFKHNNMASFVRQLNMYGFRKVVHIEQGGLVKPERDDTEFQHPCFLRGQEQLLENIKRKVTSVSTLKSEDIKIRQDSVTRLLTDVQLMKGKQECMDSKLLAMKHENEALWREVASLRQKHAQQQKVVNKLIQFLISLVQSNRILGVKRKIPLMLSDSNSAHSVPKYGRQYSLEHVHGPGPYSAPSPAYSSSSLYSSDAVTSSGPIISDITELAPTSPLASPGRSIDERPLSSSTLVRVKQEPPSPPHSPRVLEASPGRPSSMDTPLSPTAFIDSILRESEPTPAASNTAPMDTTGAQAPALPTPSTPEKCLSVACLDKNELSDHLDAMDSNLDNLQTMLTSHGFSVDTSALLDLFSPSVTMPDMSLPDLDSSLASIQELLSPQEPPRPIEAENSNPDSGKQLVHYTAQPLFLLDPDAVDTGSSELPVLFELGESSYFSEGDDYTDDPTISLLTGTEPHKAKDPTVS

[10] = cytotoxicity in KRAS-transformed pancreatic duct cells, primary screen, cell-based, fluorescence, HTS (AID 431); type: functional; conditions: Homo sapiens;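 further: cell line used: HPDE-C7K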
[11] = cytotoxicity in HPDE-C7 cells, cell-based, fluorescence, HTS (AID 430); type: functional; conditions: Homo sapiens
[12] = cytotoxicity in MIN6 insulinoma cells, dose response, cytotoxicity control, cell-based, mouse insulinoma (AID 2122); type: functional;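 further: confirmatory high-throughput counterscreen run to flag cytotoxic compounds; mouse MIN-6 beta cells carrying an insulin promoter eGFP reporter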
[13] = insulin promoter down-regulators in MIN6 cells, imaging, high-content screening, mouse beta cells (AID 1628); type: functional
[14] = target: Mitogen-activated protein kinase 10 (Homo sapiens, UniProt P53779); test: Dose response biochemical screening assay for inhibitors of c-Jun N-Terminal Kinase 3 (JNK3). [Related pubchem assays: 746 ]
[15] = target: T5, Mannose-6-phosphate isomerase (Homo sapiens, UniProt P34949); test: human PMI inhibitors, high substrate, primary screen, biochemical, fluorescence intensity, high mannose 6-phosphate (AID 1220)
T5 sequence (P34949 whole entry): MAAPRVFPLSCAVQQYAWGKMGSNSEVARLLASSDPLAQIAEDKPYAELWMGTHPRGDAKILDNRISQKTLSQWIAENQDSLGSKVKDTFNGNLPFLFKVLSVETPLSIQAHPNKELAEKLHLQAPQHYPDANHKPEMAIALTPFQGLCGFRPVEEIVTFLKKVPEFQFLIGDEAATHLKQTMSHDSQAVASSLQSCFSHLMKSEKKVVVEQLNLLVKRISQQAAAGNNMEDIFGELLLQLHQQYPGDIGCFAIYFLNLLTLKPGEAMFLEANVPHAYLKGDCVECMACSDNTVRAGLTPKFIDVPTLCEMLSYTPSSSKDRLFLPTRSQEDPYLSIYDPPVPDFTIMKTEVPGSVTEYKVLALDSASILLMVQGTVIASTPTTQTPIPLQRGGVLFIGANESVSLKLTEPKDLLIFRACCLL

Estrogen receptor beta = Estrogen receptor beta (Homo sapiens, UniProt Q92731);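 further: recombinant ER-beta bound to coactivator SRC1 peptide in presence of estradiol agonist; inhibitors block coactivator peptide binding and lower the FRET signal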
[16] = target: DNA dC->dU-editing enzyme APOBEC-3G (Homo sapiens, UniProt Q9HC16); test: Dose Response confirmation of small molecule APOBEC3G DNA Deaminase Inhibitors via a fluorescence-based single-stranded DNA deaminase assay. [Related pubchem assays (depositor defined):AID493012, AID493028]; type: functional
[17] = target: DNA dC->dU-editing enzyme APOBEC-3A (Homo sapiens, UniProt P31941); test: APOBEC3A DNA deaminase inhibitors, dose response, biochemical (AID 504722); type: functional
[18] = target: T6, Polyadenylate-binding protein 1 (Homo sapiens, UniProt P11940); test: PABP1 MLLE–PAM2 interaction inhibitors, dose response, miRNA deadenylation inhibitor project, biochemical, fluorescence polarization, Cy5-PAM2 peptide, secondary (AID 602260); type: functional; conditions: read-out: IC50_Mean
[19] = target: T6, Polyadenylate-binding protein 1; test: PABP1 MLLE–PAM2 binding inhibitor potency, dose response, biochemical, fluorescence polarization, FITC-PAM2 peptide (AID 602259); type: functional; conditions: read-out: IC50_Mean
[20] = target: T5, Mannose-6-phosphate isomerase; test: inhibitors of human PMI, primary screen, biochemical, fluorescence intensity, coupled assay (AID 1209)
[21] = target: Heat shock protein HSP 90-alpha (Homo sapiens, UniProt P07900); test: Luminescence-based dose response biochemical high throughput screening assay for inhibitors of the Heat Shock Protein 90 (HSP90). [Related pubchem assays: 1831 (Summary AID.), 1846 (Confirmation screen.), 1789 (Primary screen.)]

Mitogen-activated protein kinase 10, sequence (P53779 whole entry): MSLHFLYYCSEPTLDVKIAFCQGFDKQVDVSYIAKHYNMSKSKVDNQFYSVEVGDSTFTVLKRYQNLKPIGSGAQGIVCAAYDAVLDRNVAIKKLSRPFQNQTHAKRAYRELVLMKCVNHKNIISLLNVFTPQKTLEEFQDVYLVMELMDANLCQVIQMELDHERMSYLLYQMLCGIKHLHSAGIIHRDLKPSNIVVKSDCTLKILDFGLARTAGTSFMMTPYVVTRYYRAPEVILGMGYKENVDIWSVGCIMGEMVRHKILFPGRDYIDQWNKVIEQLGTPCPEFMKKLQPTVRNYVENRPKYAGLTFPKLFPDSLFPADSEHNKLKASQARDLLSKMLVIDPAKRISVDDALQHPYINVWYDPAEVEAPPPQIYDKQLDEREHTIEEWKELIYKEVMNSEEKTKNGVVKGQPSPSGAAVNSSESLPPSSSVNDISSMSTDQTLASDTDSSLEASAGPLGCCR
T6 sequence (P11940 whole entry): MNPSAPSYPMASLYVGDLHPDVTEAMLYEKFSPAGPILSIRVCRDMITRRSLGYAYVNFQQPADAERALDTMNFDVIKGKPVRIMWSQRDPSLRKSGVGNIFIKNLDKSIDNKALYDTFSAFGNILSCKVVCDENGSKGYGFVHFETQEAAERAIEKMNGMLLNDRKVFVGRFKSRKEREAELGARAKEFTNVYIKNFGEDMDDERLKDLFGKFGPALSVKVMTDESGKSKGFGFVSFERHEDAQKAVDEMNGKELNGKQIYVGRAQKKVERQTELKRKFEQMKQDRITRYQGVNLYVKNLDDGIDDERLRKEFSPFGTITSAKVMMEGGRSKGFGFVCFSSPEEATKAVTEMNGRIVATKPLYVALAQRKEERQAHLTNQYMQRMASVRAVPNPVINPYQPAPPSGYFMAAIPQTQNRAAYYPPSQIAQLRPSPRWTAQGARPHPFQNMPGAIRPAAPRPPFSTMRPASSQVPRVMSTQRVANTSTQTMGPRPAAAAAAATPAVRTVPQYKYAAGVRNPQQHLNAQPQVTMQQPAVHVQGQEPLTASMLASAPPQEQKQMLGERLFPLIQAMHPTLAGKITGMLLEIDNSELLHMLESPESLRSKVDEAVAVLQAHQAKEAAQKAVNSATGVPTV
DNA dC->dU-editing enzyme APOBEC-3G, sequence (Q9HC16 whole entry): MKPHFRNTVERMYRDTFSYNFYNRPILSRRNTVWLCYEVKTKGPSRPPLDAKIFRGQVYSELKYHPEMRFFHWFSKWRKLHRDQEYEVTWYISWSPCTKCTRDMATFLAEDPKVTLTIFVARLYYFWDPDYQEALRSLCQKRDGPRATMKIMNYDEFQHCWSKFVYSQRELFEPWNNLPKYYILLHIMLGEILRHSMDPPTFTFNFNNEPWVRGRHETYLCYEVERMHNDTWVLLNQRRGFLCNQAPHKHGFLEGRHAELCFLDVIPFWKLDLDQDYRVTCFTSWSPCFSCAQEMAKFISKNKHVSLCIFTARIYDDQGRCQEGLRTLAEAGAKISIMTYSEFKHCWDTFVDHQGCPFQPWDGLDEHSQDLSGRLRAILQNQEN
Disintegrin and metalloproteinase domain-containing protein 17, sequence (P78536 whole entry, the tested form may be a part): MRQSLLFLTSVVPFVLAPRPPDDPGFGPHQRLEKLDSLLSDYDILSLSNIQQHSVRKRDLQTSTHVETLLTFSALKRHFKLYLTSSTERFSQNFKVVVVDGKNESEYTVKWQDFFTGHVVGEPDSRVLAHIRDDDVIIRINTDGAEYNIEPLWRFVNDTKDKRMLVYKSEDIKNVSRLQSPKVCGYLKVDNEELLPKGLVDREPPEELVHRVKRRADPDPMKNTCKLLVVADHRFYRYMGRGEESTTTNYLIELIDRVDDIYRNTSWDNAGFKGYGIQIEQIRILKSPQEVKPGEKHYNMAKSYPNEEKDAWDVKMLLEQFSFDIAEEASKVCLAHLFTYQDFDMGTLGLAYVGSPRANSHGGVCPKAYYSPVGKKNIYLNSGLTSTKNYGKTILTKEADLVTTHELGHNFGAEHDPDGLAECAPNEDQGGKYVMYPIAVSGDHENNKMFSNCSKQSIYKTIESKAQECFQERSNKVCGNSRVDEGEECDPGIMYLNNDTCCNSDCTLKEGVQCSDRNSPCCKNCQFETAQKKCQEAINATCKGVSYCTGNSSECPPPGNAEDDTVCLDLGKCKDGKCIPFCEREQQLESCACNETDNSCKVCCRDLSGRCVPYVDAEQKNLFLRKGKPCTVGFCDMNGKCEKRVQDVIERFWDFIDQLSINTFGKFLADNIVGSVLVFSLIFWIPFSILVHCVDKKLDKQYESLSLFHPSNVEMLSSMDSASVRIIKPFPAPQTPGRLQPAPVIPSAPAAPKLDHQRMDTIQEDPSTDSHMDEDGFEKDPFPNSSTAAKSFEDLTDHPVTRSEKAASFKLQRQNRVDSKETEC
Estrogen receptor beta, sequence (Q92731 whole entry): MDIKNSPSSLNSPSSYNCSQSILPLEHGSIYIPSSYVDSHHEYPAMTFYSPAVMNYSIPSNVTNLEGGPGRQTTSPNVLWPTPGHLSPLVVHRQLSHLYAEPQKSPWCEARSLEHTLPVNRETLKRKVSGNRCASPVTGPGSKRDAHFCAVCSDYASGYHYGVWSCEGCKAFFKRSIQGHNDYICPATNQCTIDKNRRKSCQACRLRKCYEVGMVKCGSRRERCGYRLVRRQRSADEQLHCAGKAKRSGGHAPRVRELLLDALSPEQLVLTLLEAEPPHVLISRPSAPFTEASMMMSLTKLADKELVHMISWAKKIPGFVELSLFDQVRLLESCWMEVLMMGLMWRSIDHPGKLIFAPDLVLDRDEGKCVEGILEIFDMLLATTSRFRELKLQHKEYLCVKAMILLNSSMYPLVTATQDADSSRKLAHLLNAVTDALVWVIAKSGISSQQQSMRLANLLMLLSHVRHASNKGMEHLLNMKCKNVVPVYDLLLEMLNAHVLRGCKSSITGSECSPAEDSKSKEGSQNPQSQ
DNA dC->dU-editing enzyme APOBEC-3A, sequence (P31941 whole entry): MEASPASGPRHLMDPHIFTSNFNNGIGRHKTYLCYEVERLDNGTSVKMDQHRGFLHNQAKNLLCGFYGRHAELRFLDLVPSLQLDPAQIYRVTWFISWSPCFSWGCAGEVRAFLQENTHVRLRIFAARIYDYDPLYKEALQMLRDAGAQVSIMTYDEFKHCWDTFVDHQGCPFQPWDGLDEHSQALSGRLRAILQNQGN

Cc1ccc(S(=O)(=O)N(CCCO)CC(O)CON=C2c3ccccc3-c3ccccc32)cc1 (stereo not given)
IC50 [1]: > 7.72 µM (active) | EC50 [2]: 1.6 µM (active) | EC50 [3]: > 60 µM (not active) | IC50 [4]: > 69.5 µM (inactive)

N#Cc1cccc2c1-c1ccccc1/C2=N/NC(N)=O
CC50 [5]: > 40 µM (active) | IC50 [6]: > 100 µM (active) | EC50 [7]: 0.0533 µM (active)

COc1ccccc1-n1nnnc1S(=O)(=O)Cc1ccc(Cl)cc1
EC50 (Protein RecA): 1.94 µM (active) | AC50 [8]: 5.1 µM (active) | EC50 [9]: 17.3 µM (active) | EC50 [10]: 9.56 µM (active) | EC50 [11]: 6.84 µM (active)

COc1ccc(-c2cc(-c3ccc(OC)cc3)[nH]n2)cc1
IC50 [6]: > 50 µM (active)

Cc1ccc(C(C)C)c(OCC(=O)Nc2ccccc2N2CCN(C)CC2)c1
IC50 [12]: 6.82 µM (active) | EC50 [10]: > 20 µM (not active) | IC50 [13]: 2.58 µM (active) | EC50 [11]: > 20 µM (not active)

Cc1ccc2[nH]c3c(c2c1)CCc1c[nH]nc1-3
IC50 [14]: 16.4 µM (not active) | IC50 [15]: 43.4 µM (active)

O=S(=O)(Nc1ncnc2sc3c(c12)CCC3)c1ccc2ccccc2c1
IC50 (Estrogen receptor beta): 25 µM (active)

CCn1c(O)nc(CS(=O)(=O)c2ccccc2)c1C
IC50 [16]: 6.9 µM (active) | IC50 [17]: > 100 µM (inactive) | IC50 [18]: > 66 µM (inactive) | IC50 [15]: 1.23 µM (active) | IC50 [19]: > 66 µM (inactive)

c1ccc2c(c1)nc(N1CCOCC1)c1c3ccccc3[nH]c21
IC50 [14]: 30.4 µM (not active)

CC(C)(C)N1C(=O)Cc2c1nc(N)c1c(N)nc(N3CCCCC3CO)c(C#N)c21 (stereo not given)
IC50 [20]: > 50 µM (not active) | IC50 [15]: > 50 µM (not active)

COc1cc(CC(=O)Nc2ncc(C)s2)cc(OC)c1OC
IC50 [14]: 13.3 µM (not active)

CCOc1ccc(-c2nc(CN(Cc3ccccc3)C[C@@H]3CCC(=O)N3)c(C)o2)cc1
IC50 [21]: 3.05 µM (active)
